Measured values from ChEMBL document CHEMBL5465560, “Selectivity Literature for EUbOPEN Chemogenomic Library” (2024).

What was measured:
[1] = molecular target: T1, Mitogen-activated protein kinase kinase kinase 2 (Homo sapiens) (UniProt Q9Y2U5); test: Selectivity interaction (KinomeScan (DiscoverX)) EUB0000229b MAP3K2; conditions: at 10 µM
T1 sequence (whole entry): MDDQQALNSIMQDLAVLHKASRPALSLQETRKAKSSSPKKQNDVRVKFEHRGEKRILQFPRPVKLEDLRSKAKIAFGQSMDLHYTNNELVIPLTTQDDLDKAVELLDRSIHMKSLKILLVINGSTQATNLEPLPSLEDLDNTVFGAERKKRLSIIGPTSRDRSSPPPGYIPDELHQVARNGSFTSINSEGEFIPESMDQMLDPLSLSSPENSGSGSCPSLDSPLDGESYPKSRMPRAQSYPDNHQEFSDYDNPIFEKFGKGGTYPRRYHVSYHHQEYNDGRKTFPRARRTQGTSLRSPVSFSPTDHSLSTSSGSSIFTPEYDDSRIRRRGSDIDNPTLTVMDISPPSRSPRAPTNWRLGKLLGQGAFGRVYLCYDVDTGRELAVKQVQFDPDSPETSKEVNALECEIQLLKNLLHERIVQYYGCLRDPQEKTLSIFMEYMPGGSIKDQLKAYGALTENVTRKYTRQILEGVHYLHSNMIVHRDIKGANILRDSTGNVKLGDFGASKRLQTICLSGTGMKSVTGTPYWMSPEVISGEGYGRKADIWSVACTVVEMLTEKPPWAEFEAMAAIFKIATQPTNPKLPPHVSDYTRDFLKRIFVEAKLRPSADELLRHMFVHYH

[2] = molecular target: Serine/threonine-protein kinase PLK1 (Homo sapiens, UniProt P53350); test: Selectivity interaction (KinomeScan (DiscoverX)) EUB0000229b PLK1; conditions: at 10 µM
Sequence of Serine/threonine-protein kinase PLK1 (P53350 whole entry): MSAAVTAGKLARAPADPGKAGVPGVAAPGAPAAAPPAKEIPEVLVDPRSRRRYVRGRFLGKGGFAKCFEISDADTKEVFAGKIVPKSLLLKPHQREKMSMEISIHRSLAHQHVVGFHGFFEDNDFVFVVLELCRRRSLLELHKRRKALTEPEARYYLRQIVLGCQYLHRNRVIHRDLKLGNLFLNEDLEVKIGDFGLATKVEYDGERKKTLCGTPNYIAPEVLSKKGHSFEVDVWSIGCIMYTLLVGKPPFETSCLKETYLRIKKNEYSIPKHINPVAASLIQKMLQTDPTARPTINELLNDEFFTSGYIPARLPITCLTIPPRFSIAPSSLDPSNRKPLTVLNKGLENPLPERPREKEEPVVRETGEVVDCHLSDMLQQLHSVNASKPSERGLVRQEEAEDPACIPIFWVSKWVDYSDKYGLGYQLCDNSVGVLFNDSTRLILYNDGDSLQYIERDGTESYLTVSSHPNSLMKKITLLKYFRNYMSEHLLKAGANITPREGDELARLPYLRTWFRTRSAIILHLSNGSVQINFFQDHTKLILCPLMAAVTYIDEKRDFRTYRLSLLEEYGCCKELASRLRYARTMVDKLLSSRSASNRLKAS

[3] = molecular target: Dual specificity protein kinase CLK4 (Homo sapiens, UniProt Q9HAZ1); test: Selectivity interaction (KinomeScan (DiscoverX)) EUB0000045b CLK4
Sequence of Dual specificity protein kinase CLK4 (Q9HAZ1 whole entry, looked up): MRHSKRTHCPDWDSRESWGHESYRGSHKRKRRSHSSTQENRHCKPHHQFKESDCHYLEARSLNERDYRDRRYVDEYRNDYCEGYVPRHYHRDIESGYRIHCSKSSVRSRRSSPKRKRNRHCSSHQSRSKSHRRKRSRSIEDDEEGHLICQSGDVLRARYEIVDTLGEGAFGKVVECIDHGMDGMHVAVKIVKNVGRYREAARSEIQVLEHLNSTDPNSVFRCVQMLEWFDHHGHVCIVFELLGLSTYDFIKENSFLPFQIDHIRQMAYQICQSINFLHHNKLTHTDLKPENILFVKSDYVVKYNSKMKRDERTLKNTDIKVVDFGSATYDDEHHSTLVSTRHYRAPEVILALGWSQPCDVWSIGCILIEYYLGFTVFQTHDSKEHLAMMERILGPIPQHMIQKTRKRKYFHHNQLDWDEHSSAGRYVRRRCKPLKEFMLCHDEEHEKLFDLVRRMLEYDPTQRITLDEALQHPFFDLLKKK

[4] = molecular target: T2, Protein arginine N-methyltransferase 7 (Homo sapiens) (UniProt Q9NVM4); test: Selectivity interaction (Methyltransferase screen (radiometric assays, panel of 8 PRMTs, 21 protein lysine methyltransferases, 3 DNA methyltransferases, and one RNA methyltransferase)) EUB0000271b PRMT7
T2 sequence (whole entry): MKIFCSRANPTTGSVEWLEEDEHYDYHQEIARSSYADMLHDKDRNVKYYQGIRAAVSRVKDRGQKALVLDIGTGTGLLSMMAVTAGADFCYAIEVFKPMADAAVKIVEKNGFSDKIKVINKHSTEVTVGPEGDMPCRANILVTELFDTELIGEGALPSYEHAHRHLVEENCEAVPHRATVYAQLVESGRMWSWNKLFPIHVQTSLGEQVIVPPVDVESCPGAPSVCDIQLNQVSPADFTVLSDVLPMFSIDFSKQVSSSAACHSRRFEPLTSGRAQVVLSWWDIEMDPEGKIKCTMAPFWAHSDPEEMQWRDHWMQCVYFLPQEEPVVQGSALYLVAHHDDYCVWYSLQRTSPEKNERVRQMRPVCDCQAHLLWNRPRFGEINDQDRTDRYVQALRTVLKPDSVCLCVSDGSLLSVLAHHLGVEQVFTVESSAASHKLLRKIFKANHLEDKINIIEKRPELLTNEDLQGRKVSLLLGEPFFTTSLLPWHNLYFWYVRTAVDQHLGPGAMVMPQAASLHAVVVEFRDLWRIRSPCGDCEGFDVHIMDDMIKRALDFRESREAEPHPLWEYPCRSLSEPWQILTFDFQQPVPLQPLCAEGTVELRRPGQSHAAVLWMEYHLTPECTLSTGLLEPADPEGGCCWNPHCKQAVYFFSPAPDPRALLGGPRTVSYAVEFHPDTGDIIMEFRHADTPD

[5] = molecular target: Mitogen-activated protein kinase kinase kinase 1 (Homo sapiens, UniProt Q13233); test: Selectivity interaction (ProQinase) EUB0000171b MAP3K1
Sequence of Mitogen-activated protein kinase kinase kinase 1 (Q13233 whole entry, the tested form may be a part): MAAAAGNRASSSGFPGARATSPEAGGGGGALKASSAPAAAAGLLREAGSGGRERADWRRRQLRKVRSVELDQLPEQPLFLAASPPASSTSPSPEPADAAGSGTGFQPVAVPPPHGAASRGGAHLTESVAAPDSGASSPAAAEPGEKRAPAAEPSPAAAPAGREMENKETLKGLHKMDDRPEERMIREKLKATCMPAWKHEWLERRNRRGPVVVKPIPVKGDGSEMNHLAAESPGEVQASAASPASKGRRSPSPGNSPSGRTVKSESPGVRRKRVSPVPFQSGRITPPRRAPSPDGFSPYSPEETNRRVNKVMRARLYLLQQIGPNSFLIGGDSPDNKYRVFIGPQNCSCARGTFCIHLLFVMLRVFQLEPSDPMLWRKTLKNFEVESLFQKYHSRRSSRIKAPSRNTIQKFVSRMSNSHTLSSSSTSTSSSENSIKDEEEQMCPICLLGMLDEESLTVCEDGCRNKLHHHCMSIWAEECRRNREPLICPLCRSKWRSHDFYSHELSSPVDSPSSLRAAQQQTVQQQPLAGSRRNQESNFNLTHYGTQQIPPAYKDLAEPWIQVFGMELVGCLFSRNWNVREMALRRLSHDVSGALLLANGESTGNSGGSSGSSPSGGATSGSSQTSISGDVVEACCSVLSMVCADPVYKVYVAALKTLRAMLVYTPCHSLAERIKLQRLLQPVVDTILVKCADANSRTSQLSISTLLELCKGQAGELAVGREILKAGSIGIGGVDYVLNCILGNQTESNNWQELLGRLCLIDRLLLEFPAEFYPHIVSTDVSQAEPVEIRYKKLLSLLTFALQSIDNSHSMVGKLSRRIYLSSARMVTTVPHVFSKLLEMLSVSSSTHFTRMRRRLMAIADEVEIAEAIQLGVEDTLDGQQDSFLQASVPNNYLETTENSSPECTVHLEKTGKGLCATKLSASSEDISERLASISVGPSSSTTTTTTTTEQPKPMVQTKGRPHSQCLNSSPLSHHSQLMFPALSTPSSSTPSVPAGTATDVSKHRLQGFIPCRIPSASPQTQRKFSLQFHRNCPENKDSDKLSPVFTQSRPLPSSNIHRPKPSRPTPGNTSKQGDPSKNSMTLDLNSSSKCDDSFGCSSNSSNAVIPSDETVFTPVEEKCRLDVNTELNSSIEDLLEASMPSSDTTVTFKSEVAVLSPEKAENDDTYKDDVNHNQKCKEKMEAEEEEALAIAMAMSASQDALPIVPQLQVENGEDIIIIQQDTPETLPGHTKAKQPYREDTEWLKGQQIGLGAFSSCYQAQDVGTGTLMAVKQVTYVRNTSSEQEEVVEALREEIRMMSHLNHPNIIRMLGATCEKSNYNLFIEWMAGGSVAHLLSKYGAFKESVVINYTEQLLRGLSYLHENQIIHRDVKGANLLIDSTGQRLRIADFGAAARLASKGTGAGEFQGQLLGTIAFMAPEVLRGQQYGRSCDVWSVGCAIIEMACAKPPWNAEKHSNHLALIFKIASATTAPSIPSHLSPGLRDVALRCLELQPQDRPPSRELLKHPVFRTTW

[6] = molecular target: T3, Discoidin domain-containing receptor 2 (Homo sapiens) (UniProt Q16832); test: Selectivity interaction (KinomeScan (DiscoverX)) EUB0000607a DDR2; conditions: at 10 µM
T3 sequence (whole entry): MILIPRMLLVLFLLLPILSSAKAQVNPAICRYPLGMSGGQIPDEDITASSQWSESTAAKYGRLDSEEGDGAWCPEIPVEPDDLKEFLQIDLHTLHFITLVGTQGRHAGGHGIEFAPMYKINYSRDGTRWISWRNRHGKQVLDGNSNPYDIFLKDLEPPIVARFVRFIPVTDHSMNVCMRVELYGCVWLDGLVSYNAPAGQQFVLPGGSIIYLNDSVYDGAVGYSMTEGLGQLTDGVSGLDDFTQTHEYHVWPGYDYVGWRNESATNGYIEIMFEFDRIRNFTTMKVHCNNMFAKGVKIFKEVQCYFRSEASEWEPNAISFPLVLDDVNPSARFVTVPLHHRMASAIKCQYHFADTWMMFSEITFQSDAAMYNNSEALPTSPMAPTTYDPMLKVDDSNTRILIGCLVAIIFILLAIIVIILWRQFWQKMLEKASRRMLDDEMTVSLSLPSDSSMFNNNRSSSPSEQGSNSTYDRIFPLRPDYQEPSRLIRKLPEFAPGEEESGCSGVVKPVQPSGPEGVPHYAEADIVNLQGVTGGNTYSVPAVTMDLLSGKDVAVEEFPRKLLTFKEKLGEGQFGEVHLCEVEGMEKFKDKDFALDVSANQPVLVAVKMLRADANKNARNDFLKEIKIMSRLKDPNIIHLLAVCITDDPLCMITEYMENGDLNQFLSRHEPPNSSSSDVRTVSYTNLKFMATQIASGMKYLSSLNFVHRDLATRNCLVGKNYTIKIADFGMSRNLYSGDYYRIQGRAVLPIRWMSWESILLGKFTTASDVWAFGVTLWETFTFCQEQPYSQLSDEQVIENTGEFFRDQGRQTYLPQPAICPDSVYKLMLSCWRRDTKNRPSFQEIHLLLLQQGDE

[7] = molecular target: Activated CDC42 kinase 1 (Homo sapiens, UniProt Q07912); test: Selectivity interaction (KinomeScan (DiscoverX)) EUB0000618a TNK2; conditions: at 10 µM
[8] = molecular target: Serine/threonine-protein kinase 10 (Homo sapiens) (UniProt O94804); test: Selectivity interaction (ActivX KiNativ screen (kinase selectivity in THP-1 cell lysates)) EUB0000639a STK10; assay type: subcellular; conditions: lysate, at 0.2 µM
Sequence of Serine/threonine-protein kinase 10 (Homo sapiens) (O94804 whole entry, looked up): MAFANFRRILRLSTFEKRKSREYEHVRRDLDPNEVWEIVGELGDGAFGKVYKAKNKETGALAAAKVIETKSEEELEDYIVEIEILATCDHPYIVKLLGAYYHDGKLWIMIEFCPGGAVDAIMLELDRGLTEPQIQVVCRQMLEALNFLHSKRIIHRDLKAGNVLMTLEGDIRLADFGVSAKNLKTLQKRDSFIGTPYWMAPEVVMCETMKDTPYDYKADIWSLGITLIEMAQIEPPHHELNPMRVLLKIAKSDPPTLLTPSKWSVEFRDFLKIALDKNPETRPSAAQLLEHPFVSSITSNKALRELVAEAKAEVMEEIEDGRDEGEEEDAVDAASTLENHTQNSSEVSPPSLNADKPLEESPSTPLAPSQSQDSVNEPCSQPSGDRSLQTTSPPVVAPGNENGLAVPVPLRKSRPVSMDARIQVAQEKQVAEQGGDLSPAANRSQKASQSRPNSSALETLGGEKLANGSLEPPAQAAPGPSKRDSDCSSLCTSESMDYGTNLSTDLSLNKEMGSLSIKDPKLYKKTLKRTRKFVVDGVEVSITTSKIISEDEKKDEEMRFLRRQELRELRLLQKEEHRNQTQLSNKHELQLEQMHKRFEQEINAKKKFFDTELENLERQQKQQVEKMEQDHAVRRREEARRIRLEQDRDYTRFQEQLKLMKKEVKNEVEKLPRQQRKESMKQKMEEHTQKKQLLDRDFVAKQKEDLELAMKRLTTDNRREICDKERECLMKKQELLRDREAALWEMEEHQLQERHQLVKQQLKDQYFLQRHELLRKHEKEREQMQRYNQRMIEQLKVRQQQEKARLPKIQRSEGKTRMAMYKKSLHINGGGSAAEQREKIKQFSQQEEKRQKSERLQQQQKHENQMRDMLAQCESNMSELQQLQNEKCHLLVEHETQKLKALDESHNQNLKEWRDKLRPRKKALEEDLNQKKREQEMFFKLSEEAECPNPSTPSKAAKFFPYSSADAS

[9] = molecular target: Cyclin-dependent kinase 11B (Homo sapiens) (UniProt P21127); conditions: at 10 µM
Sequence of Cyclin-dependent kinase 11B (Homo sapiens) (P21127 whole entry): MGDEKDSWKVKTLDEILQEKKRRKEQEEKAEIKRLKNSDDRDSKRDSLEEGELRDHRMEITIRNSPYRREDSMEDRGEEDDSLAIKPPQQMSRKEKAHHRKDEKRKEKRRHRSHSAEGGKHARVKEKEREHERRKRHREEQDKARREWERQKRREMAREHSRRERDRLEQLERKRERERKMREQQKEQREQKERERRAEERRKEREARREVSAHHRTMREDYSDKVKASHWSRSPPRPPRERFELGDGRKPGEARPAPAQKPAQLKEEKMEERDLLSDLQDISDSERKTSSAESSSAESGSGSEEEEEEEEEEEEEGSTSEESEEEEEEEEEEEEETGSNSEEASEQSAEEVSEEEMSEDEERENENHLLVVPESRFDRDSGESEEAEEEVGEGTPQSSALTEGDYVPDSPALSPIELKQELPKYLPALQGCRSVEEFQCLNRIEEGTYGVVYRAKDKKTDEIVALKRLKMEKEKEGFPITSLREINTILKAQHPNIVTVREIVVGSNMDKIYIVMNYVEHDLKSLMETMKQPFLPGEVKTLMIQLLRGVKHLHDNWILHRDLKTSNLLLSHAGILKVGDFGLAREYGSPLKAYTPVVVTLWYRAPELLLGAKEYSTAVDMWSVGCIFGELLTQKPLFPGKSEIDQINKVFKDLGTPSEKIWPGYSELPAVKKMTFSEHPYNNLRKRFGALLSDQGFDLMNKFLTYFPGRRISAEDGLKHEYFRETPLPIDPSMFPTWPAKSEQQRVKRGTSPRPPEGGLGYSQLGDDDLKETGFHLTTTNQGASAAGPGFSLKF

[10] = molecular target: Tyrosine-protein kinase Blk (Homo sapiens) (UniProt P51451); test: Selectivity interaction (KinomeScan (DiscoverX)) EUB0000092b BLK; conditions: at 10 µM
Sequence of Tyrosine-protein kinase Blk (Homo sapiens) (P51451 2-505 limits assumed): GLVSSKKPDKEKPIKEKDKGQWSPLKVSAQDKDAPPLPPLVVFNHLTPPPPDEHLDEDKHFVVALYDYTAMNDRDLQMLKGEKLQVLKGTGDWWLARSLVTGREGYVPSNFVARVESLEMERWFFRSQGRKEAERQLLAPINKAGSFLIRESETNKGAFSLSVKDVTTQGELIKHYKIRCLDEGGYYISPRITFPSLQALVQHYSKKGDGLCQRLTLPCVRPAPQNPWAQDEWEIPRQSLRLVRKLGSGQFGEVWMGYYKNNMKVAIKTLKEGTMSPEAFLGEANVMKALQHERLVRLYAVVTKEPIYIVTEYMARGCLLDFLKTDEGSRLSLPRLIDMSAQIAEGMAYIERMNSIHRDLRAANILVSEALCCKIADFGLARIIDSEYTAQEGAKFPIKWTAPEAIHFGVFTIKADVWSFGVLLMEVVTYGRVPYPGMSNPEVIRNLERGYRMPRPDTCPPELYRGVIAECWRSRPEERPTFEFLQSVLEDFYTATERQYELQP

COc1cc(N(C)c2ccnc3ccc(C(F)(F)F)cc23)cc(OC)c1OC
% binding [1]: 52%
% binding [2]: 100%

C=CC(=O)Nc1cc(-n2c(=O)ccc3cnc4ccc(-c5ccc(NS(C)(=O)=O)cc5)cc4c32)ccc1C
% of control ([3]; at 1 µM): 99%
% of control ([3]; at 10 µM): 85%

Cc1cc(C)cc([C@@H]2c3cc(C)ccc3NC(=O)CN2C(=O)c2ccc(Br)s2)c1
% of activity ([4]; at 1 µM): 97.7%
% of activity ([4]; at 10 µM): 103%

C=CC(=O)Nc1cccc(C(=O)Nc2ccc(Nc3cc(-c4[nH]c(SC)nc4C)ccn3)cc2)c1
% of control ([5]; at 1 µM): 100%
% of control ([5]; at 5 µM): 96%

CNC(=O)Nc1ccc(-c2nc(N3CC4CCC(C3)O4)c3cnn(C4CCC5(CC4)OCCO5)c3n2)cc1
% of control [6]: 100%

O[C@H]1CC[C@H](Nc2ncc3nc(Nc4c(F)cc(F)cc4F)n([C@H]4CCOC4)c3n2)CC1
% of control [7]: 100%

CC[C@@H]1[C@H](F)C(=O)N[C@@H]1COc1nccc2cc(C(N)=O)c(OC)cc12 [ZIMLOVISERTIB]
% of inhibition [8]: -8.1%

CCN(CC)CCCCNc1ncc2cc(-c3cc(OC)cc(OC)c3)c(NC(=O)NC(C)(C)C)nc2n1
% of control [9]: 100%

CCC(=O)N1CCN(c2ccc(-n3c(=O)ccc4cnc5ccc(-c6cnc7ccccc7c6)cc5c43)cc2C(F)(F)F)CC1
% of control [10]: 75%
